One data set has as its target T1, Human Arginase 1 (Homo sapiens, UniProt P05089).
T1 construct: made in house; host or cells: E. coli
T1 sequence (P05089 1-322): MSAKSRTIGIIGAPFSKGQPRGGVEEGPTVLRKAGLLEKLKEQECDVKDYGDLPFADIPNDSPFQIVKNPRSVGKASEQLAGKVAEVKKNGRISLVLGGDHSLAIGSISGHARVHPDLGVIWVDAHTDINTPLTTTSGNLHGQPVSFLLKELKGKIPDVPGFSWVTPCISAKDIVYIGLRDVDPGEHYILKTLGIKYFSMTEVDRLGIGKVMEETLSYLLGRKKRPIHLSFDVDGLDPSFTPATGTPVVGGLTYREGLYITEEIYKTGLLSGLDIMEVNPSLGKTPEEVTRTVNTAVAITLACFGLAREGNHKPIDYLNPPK
Description: Human Arginase 1 enzyme inhibition (thioarginine/DTNB absorbance at 412 nm). Type of data set: biochemical. The note with it: recombinant enzyme 5 nM, 60 min, room temperature. An excerpt:
(§1) The inhibitory effects of Examples 1-26 on the activity of Human Arginase 1 and Arginase 2 activity were quantified by measuring the formation of the thiol group from thioarginine using recombinant Arginase 1 or Arginase 2 produced from E. coli. The thiol group was detected with Ellman's reagent, 5,5′-dithiobis(2-nitrobenzoic acid) (DTNB). DTNB reacts with the thiol to give the mixed disulfide and 2-nitro-5-thiobenzoic acid (TNB) which is quantified by the absorbance of the anion (TNB^2−) at 412 nm.
(§2) The assays were run in clear 384 well plates (Greiner cat no: 781101). Various concentrations of Examples 1-26 in 300 nL DMSO were dispensed to assay plates using an Echo acoustic dispenser immediately followed by plate sealing and centrifugation. Two pre-mixes were prepared from reagents thawed immediately before addition to assay plates. Pre-mix one comprised human Arginase 1 or human Arginase 2, at a final concentration of 5 nM and 0.5 mM DTNB in assay buffer, 45 mM HEPES pH7.5, brij 35, 0.045% (w/v) and 100 μM MnCl2. Pre-mix two comprised freshly thawed 0.5 mM thioarginine in assay buffer. Fifteen microlitres of pre-mix one was dispensed to assay plates containing Examples 1-9, centrifuged and incubated for 30 minutes at room temperature prior to adding fifteen microlitres of pre-mix two.
(§3) Assay plates were centrifuged prior to reading absorbance at 412 nm in a Pherastar multi-mode plate reader to collect data at time point 0 (T0). The plates were incubated at room temperature for 60 min prior to reading again to collect data at time point 1 (T1). Data is derived by subtracting the A412 signal measured at T0 (time point 0) from that measured at T1 (time point 1). The data was transformed to % effect using the equation:
(§4) Compound % effect=100*[(X−min)/(max−min)],
(§5) where X represents the normalized value for the compound based on the Min (vehicle) and Max (reference compound) inhibition control.
(§6) The concentration of Examples 1-26 that inhibited the activity by 50% (i.e.the IC50) was calculated by plotting the % effect versus test compound concentration and fitting the data using the Genedata Screener Smart fit algorithm.

Data set [1] can be described thus: Bioavailability / pharmacokinetic study in male rats (IV and PO). The note with it: rat; for Vd: read-out: Vdss; for Cmax / Tmax / AUC: PO 5 mg/kg; for bioavailability: 5 mg/kg, pro-drug when dosed as pro-drug, PO vs IV. The class given is in vivo. The procedure:
Example 14 is a prodrug form of Example 1. Examples 19 to 22 and 24 to 26 are prodrugs of example 18. […] Example 19 was formulated in 0.9% w/v saline pH 4 (adjusted with 1 M HCl) for IV dosing. The formulation was dosed at 2 mg/kg by femoral catheter to two male rats each (170-250 g). Jugular vein catheter serial blood samples were taken at 0.033, 0.083, 0.167, 0.5, 1, 2, 4, 8, and 24 hrs post-dose. For PO dosing, Example 19 was formulated in deionized water pH 4 (adjusted with 1 M HCl) and dosed at 5 mg/kg by oral gavage to two male rats each (170-250 g). Serial blood samples were taken by jugular vein catheter at 0.25, 0.5, 1, 1.5, 2, 3, 4, 8, and 24 hrs post dose. Plasma samples were generated from blood using low speed centrifugation. A single set of calibration standards containing Example 18 and Example 19 were prepared by spiking blank plasma. The samples and standards were extracted by precipitation with two volumes of acetonitrile followed by centrifugation. The results obtained were used to determine the Cl (mL/min/kg), Vdss (L/kg), Cmax (μM), AUC (μM h), tmax (h), and % F for both Example 18 and Example 19. Absolute bioavailability was determined by comparing the PO dose normalized AUC of Example 18 when dosed as Example 19, versus the dose normalized IV AUC of Example 18 when dosed as Example 18. Where appropriate, measured, not nominal, doses were used in the calculation. In an analogous fashion, the same procedure was repeated for Examples 14, 20 to 22, and 24 to 26.

The target of a further data set is T2, Human Arginase 2 (Homo sapiens, UniProt P78540).
T2 construct: made in house; host or cells: E. coli
T2 sequence (P78540 23-354): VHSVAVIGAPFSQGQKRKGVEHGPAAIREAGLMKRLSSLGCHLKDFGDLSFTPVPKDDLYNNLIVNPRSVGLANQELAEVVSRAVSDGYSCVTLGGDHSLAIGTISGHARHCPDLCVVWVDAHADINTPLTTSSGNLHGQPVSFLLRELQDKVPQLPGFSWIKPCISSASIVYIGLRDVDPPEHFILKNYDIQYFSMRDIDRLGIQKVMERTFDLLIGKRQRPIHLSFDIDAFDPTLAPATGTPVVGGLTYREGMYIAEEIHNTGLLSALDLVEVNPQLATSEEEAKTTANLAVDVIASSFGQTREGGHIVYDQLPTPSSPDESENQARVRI
Description: Human Arginase 2 enzyme inhibition (thioarginine/DTNB absorbance at 412 nm). The class given is biochemical. The conditions noted are these: recombinant enzyme 5 nM, 60 min, room temperature.
Excerpt: as §1, §2, §3, §4, §5, §6

Setting [2] is: plasma, payload when dosed as payload, IV.
[3] abbreviates: pro-drug in plasma when dosed as pro-drug, IV 2 mg/kg.
The mark [4] stands for this setting: pro-drug in plasma when dosed as pro-drug.

The values below come from patent US20220267356A1, “ARGINASE INHIBITORS AND METHODS OF USE THEREOF” (AstraZeneca AB, priority 2019, published 2022).

Like-named read-outs stand apart in the source and are kept apart here.

A word on the IC50: it is the concentration that inhibits the measured activity by half. `NC[C@@H](CCCB(O)O)[C@H](N)C(=O)O` [Example 1, (2S,3R)-2-amino-3-(aminomethyl)-6-boronohexanoic acid]: on Human Arginase 1, the IC50 stood at 39 nM. In data set [1] (setting [2]), the clearance came to 8.26 mL/min/kg and the Vd was determined as 0.46 L/kg. At Human Arginase 2, the IC50 came to 81 nM.

For `N[C@H](C(=O)O)[C@H](CCCB(O)O)CN1CCOCC1` [Example 2, (2S,3R)-2-amino-6-borono-3-(morpholinomethyl)hexanoic acid], the IC50 on Human Arginase 1 was found to be 38600 nM; at Human Arginase 2, 85200 nM.

Take `N[C@H](C(=O)O)[C@H](CCCB(O)O)CN1CCCCC1` [Example 3, (2S,3R)-2-amino-6-borono-3-(piperidin-1-ylmethyl)hexanoic acid]: the IC50 on Human Arginase 1 was 7060 nM; on Human Arginase 2 it was 16300 nM.

In the case of `CNC[C@@H](CCCB(O)O)[C@H](N)C(=O)O` [Example 4, (2S,3R)-2-amino-6-borono-3-((methylamino)methyl)hexanoic acid], the IC50 worked out at 870 nM at Human Arginase 1 and 770 nM at Human Arginase 2.

Consider `CN(C)C[C@@H](CCCB(O)O)[C@H](N)C(=O)O` [Example 5, (2S,3R)-2-amino-6-borono-3-((dimethylamino)methyl)hexanoic acid], for which the figures for the IC50 at Human Arginase 1 and on Human Arginase 2 were 2090 nM and 4310 nM, respectively.

Take `NC(=O)NC[C@@H](CCCB(O)O)[C@H](N)C(=O)O` [Example 7, (2S,3R)-2-amino-6-borono-3-(ureidomethyl)hexanoic acid]: the IC50 came to 2730 nM on Human Arginase 1 and 5580 nM at Human Arginase 2.

On to `CC(C)[C@H](N)C(=O)NC[C@@H](CCCB(O)O)[C@H](N)C(=O)O` [Example 8, (2S,3R)-2-amino-3-(((S)-2-amino-3-methylbutanamido)methyl)-6-boronohexanoic acid], for which the IC50 at Human Arginase 1 is 150 nM; on Human Arginase 2, 490 nM.

Turning to `CC[C@H](N)C(=O)NC[C@@H](CCCB(O)O)[C@H](N)C(=O)O` [Example 9, (2S,3R)-2-amino-3-(((S)-2-aminobutanamido)methyl)-6-boronohexanoic acid], the IC50 at Human Arginase 1 amounted to 180 nM; on Human Arginase 2, 410 nM.

As for `C[C@H](N)C(=O)NC[C@@H](CCCB(O)O)[C@H](N)C(=O)O` [Example 10, (2S,3R)-2-amino-3-(((S)-2-aminopropanamido)methyl)-6-boronohexanoic acid], the IC50 on Human Arginase 1 was determined as 160 nM; at Human Arginase 2, 360 nM.

`CC(=O)NC[C@@H](CCCB(O)O)[C@H](N)C(=O)O` [Example 11, (2S,3R)-3-(acetamidomethyl)-2-amino-6-boronohexanoic acid]: the values for the IC50 at Human Arginase 1 and at Human Arginase 2 were 5080 nM and 5890 nM, respectively.

With `CN[C@H](C(=O)O)[C@@H](CN)CCCB(O)O` [Example 12, (2S,3R)-3-(aminomethyl)-6-borono-2-(methylamino)hexanoic acid], the IC50 on Human Arginase 1 is 400 nM; on Human Arginase 2 it was 1080 nM.

On to `CC(C)[C@H](N)C(=O)N[C@H](C(=O)O)[C@@H](CN)CCCB(O)O` [Example 13, (2S,3R)-2-((S)-2-Amino-3-methylbutanamido)-3-(aminomethyl)-6-boronohexanoic acid], for which the IC50 at Human Arginase 1 worked out at 13200 nM; at Human Arginase 2, 9460 nM.

In general, Cmax refers to the peak of the concentration-time curve. In general, Tmax refers to the time from dosing to the highest level. In the case of `C[C@H](N)C(=O)N[C@H](C(=O)O)[C@@H](CN)CCCB(O)O` [Example 14, (2S,3R)-3-(aminomethyl)-2-((S)-2-aminopropanamido)-6-boronohexanoic acid], at Human Arginase 1, the IC50 was 2180 nM. In addition, in data set [1] (setting [3]), the clearance was 46.1 mL/min/kg and the Vd was determined as 0.47 L/kg. Besides, in data set [1] (setting [4]), the Cmax is 130 nM and the Tmax is 15 min. The IC50 at Human Arginase 2 stood at 3900 nM.

Turning to `NCC[C@@H](CCCB(O)O)[C@H](N)C(=O)O` [Example 15, (2S,3R)-2-amino-3-(2-aminoethyl)-6-boronohexanoic acid], the IC50 was found to be 220 nM on Human Arginase 1 and 480 nM at Human Arginase 2.

Take `NC(=O)[C@@H](CCCB(O)O)[C@H](N)C(=O)O` [Example 16, (2S,3S)-2-amino-6-borono-3-carbamoylhexanoic acid]: the IC50 on Human Arginase 1 stood at 19200 nM; on Human Arginase 2 it was 54400 nM.

As for `CNC(=O)[C@@H](CCCB(O)O)[C@H](N)C(=O)O` [Example 17, (2S,3S)-2-amino-6-borono-3-(methylcarbamoyl)hexanoic acid], the IC50 at Human Arginase 1 is 34200 nM; at Human Arginase 2 it was greater than 100000 nM.

As for `NC[C@H](CCCB(O)O)[C@H](N)C(=O)O` [Example 18, (2S,3S)-2-amino-3-(aminomethyl)-6-boronohexanoic acid], the IC50 at Human Arginase 1 was 90 nM. In data set [1] (setting [2]), the clearance was determined as 7.3 mL/min/kg and the Vd came to 0.38 L/kg. For the same compound, the IC50 at Human Arginase 2 was determined as 220 nM.

As a reminder, the bioavailability is dose-corrected exposure relative to a reference, in per cent. As usually defined, the AUC is concentration integrated over time. Low readings indicate less exposure, high ones more exposure. On to `CC(C)[C@H](N)C(=O)NC[C@H](CCCB(O)O)[C@H](N)C(=O)O` [Example 19, (2S,3S)-2-amino-3-(((S)-2-amino-3-methylbutanamido)methyl)-6-boronohexanoic acid], for which the IC50 on Human Arginase 1 is 60 nM. The compound also yielded a bioavailability in data set [1] (plasma) of 8.3%. In addition, in data set [1] (setting [3]), the clearance was found to be 16.4 mL/min/kg and the Vd was 0.47 L/kg. Further, in data set [1] (setting [4]), the AUC is 1.4 µM·h, the highest level (Cmax) was 660 nM and the Tmax stood at 30 min. Further, the IC50 on Human Arginase 2 came out at 110 nM.

For the compound `C[C@H](N)C(=O)NC[C@H](CCCB(O)O)[C@H](N)C(=O)O` [Example 20, (2S,3S)-2-amino-3-(((S)-2-aminopropanamido)methyl)-6-boronohexanoic acid], the IC50 on Human Arginase 1 came out at 9 nM. In data set [1] (plasma), this compound registered a bioavailability of 5.1%. In data set [1] (setting [3]), the clearance was 12.5 mL/min/kg and the Vd was found to be 0.21 L/kg. In data set [1] (setting [4]), the AUC was determined as 1.25 µM·h, the peak level (Cmax) was 440 nM and the Tmax is 45 min. In addition, the IC50 on Human Arginase 2 came out at 140 nM.

Turning to `CC[C@H](N)C(=O)NC[C@H](CCCB(O)O)[C@H](N)C(=O)O` [Example 21, (2S,3S)-2-amino-3-(((S)-2-aminobutanamido)methyl)-6-boronohexanoic acid], the IC50 at Human Arginase 1 worked out at 39 nM. The bioavailability in data set [1] (plasma) worked out at 1.5%. For the same compound, in data set [1] (setting [3]), the clearance came to 14.1 mL/min/kg and the Vd was determined as 0.22 L/kg. For the same compound, in data set [1] (setting [4]), the AUC amounted to 0.35 µM·h, the Cmax amounted to 230 nM and the Tmax came to 30 min. The IC50 at Human Arginase 2 came out at 61 nM.

`CC(C)(C)[C@H](N)C(=O)NC[C@H](CCCB(O)O)[C@H](N)C(=O)O` [Example 23, (2S,3S)-2-amino-3-(((S)-2-amino-3,3-dimethylbutanamido)methyl)-6-boronohexanoic acid]: the IC50 at Human Arginase 1 stood at 30 nM; at Human Arginase 2, 100 nM.
